Data: patent publication US6737383B1, “Herbicidal oxadiazolidines” (priority 1999, dated 2004)

Tests used:
[1] = test system: blackgrass; assay: Test B pre/postemergence blackgrass; type: in vivo, Alopecurus myosuroides
Method in brief: (§1)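 Response is a visual 0-to-10 score relative to untreated plants, where 0 means no effect and 10 means complete control, taken twelve to sixteen days after application. Treatments went onto soil at planting and onto foliage of 1- to 4-leaf plants, using a surfactant-containing non-phytotoxic solvent.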

[2] = test system: bamyardgrass; assay: Test B flood test barnyardgrass; type: in vivo, Echinochloa crus-galli
Method in brief: (§2)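 Flood test on plants grown to the 2-leaf stage; treated plants kept in greenhouse twelve to sixteen days, then visually rated against controls on a 0 (no effect) to 10 (complete control) scale.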

[3] = test system: sugar beet; assay: Test B pre/postemergence sugar beet; type: in vivo, Beta vulgaris; conditions: for Plant response rating, Sugarbeets: Rate 250 g/ha
Method in brief: as §1

[4] = test system: soybean; assay: Test B pre/postemergence soybean; type: in vivo, Glycine max
Method in brief: as §1

[5] = test system: cocklebur; assay: Test B pre/postemergence cocklebur; type: in vivo, Xanthium strumarium
Method in brief: as §1

[6] = test system: wild oat; assay: Test B pre/postemergence wild oat; type: in vivo, Avena fatua; conditions: for Plant response rating, Wild oats: Rate 250 g/ha
Method in brief: as §1

[7] = test system: duck salad; assay: Test B flood test duck salad; type: in vivo, Heteranthera limosa
Method in brief: as §2

[8] = test system: surinam grass; assay: Test B pre/postemergence surinam grass; type: in vivo, Brachiaria decumbens
Method in brief: as §1

[9] = test system: velvetleaf; assay: Test B pre/postemergence velvetleaf; type: in vivo, Abutilon theophrasti; conditions: for Plant response rating, Velvetleaf: Rate 250 g/ha
Method in brief: as §1

[10] = test system: corn; assay: Test B pre/postemergence corn; type: in vivo, Zea mays
Method in brief: as §1

[11] = test system: smallflower flatsedge; assay: Test B flood test smallflower flatsedge; type: in vivo, Cyperus difformis
Method in brief: as §2

[12] = test system: purple nutsedge; assay: Test B pre/postemergence purple nutsedge; type: in vivo, Cyperus rotundus
Method in brief: as §1

[13] = test system: crabgrass; assay: Test B pre/postemergence crabgrass; type: in vivo, Digitaria sanguinalis
Method in brief: as §1

[14] = test system: rape; assay: Test B pre/postemergence rape; type: in vivo, Brassica napus
Method in brief: as §1

[15] = test system: wheat; assay: Test B pre/postemergence wheat; type: in vivo, Triticum aestivum; conditions: for Plant response rating, Wheat: Rate 250 g/ha
Method in brief: as §1

[16] = test system: bedstraw; assay: Test B pre/postemergence bedstraw; type: in vivo, Galium aparine
Method in brief: as §1

[17] = test system: rice; assay: Test B flood test rice; type: in vivo, Oryza sativa
Method in brief: as §2

[18] = Postemergence, Rate 125 g/ha, scale of 0 to 10 where 0 is no effect and 10 is complete control
[19] = Postemergence, Rate 250 g/ha, scale 0 to 10, 0 no effect, 10 complete control
[20] = Preemergence, Rate 62 g/ha, scale 0 to 10 (0 no effect, 10 complete control)
[21] = Preemergence, Rate 125 g/ha, scale 0 to 10 (0 no effect, 10 complete control)
[22] = Preemergence, Rate 250 g/ha, scale of 0 to 10 where 0 is no effect and 10 is complete control
[23] = Preemergence, Rate 500 g/ha, scale 0 to 10 (0 no effect, 10 complete control)
[24] = Rate 62 g/ha, Postemergence, scale of 0 to 10 where 0 is no effect and 10 is complete control
[25] = Rate 500 g/ha, Postemergence, scale 0 to 10, 0 no effect, 10 complete control
[26] = Rate 250 g/ha, headed Pre-emergence (flood test species), scale 0 to 10 (0 no effect, 10 complete control)
[27] = Rate 500 g/ha, headed Pre-emergence (flood test species), scale 0 to 10 (0 no effect, 10 complete control)
[28] = Rate 1000 g/ha, Pre-emergence (as headed), scale 0 to 10
[29] = Preemergence, Rate 125 g/ha, 0 is no effect, 10 is complete control
[30] = Preemergence, scale of 0 to 10 where 0 is no effect and 10 is complete control
[31] = Postemergence, scale 0 to 10, 0 is no effect, 10 is complete control
[32] = Rate 2000 g/ha, Pre-emergence (as headed), scale 0 to 10
[33] = Postemergence, Rate 62 g/ha, scale 0 to 10, 0 is no effect, 10 is complete control
[34] = Rate 125 g/ha, Postemergence, scale 0 to 10, 0 no effect, 10 complete control

CCCn1c(=O)on(C(=O)N(c2ccc(Cl)cc2)C(C)C)c1=O [Compound 119]
Blackgrass plant response rating [1, 18]: 3
Blackgrass plant response rating [1, 19]: 7
Blackgrass plant response rating [1, 20]: 5
Plant response rating, Blackgrass [1, 21]: 8
Plant response rating, Blackgrass [1, 22]: 9
Blackgrass plant response rating [1, 23]: 9
Blackgrass plant response rating [1, 24]: 2
Blackgrass plant response rating [1, 25]: 8
Barnyardgrass plant response rating [2, 26]: 0
Plant response rating, Barnyardgrass [2, 27]: 0
Barnyardgrass plant response rating [2, 28]: 0
Barnyardgrass plant response rating ([2]; Rate 2000 g/ha, Pre-emergence (as headed), scale 0 to 10, 0 no effect, 10 complete control): 0
Sugarbeets plant response rating [3, 18]: 0
Sugarbeets plant response rating [3, 20]: 3
Sugarbeets plant response rating (0 to 10 scale) [3, 29]: 4
Plant response rating, Sugarbeets [3, 30]: 8
Sugarbeets plant response rating [3, 23]: 8
Sugarbeets plant response rating [3, 24]: 0
Plant response rating, Sugarbeets [3, 31]: 0
Sugarbeets plant response rating [3, 25]: 4
Soybean plant response rating [4, 18]: 2
Soybean plant response rating [4, 20]: 0
Plant response rating, Soybean [4, 21]: 0
Plant response rating, Soybean [4, 22]: 0
Soybean plant response rating [4, 23]: 0
Soybean plant response rating [4, 24]: 1
Plant response rating, Soybean ([4]; Rate 250 g/ha, Postemergence, scale 0 to 10, 0 is no effect, 10 is complete control): 4
Soybean plant response rating [4, 25]: 6
Cocklebur plant response rating [5, 18]: 0
Cocklebur plant response rating [5, 19]: 0
Cocklebur plant response rating [5, 20]: 0
Plant response rating, Cocklebur [5, 21]: 0
Plant response rating, Cocklebur [5, 22]: 0
Cocklebur plant response rating [5, 24]: 0
Cocklebur plant response rating [5, 25]: 0
Wild oats plant response rating [6, 18]: 0
Wild oats plant response rating [6, 20]: 5
Wild oats plant response rating (0 to 10 scale) [6, 29]: 6
Plant response rating, Wild oats [6, 30]: 6
Wild oats plant response rating [6, 23]: 9
Wild oats plant response rating [6, 24]: 0
Plant response rating, Wild oats [6, 31]: 3
Wild oats plant response rating [6, 25]: 6
Ducksalad plant response rating [7, 26]: 0
Plant response rating, Ducksalad [7, 27]: 0
Ducksalad plant response rating [7, 28]: 0
Ducksalad plant response rating [7, 32]: 0
B. signalgrass plant response rating [8, 33]: 0
B. signalgrass plant response rating [8, 19]: 3
B. signalgrass plant response rating [8, 20]: 5
Plant response rating, B. signalgrass [8, 21]: 7
Plant response rating, B. signalgrass [8, 22]: 7
B. signalgrass plant response rating [8, 23]: 9
B. signalgrass plant response rating [8, 34]: 0
B. signalgrass plant response rating ([8]; Rate 500 g/ha, Postemergence, scale of 0 to 10 where 0 is no effect and 10 is complete control): 5
Velvetleaf plant response rating [9, 18]: 2
Velvetleaf plant response rating [9, 20]: 0
Velvetleaf plant response rating (0 to 10 scale) [9, 29]: 4
Plant response rating, Velvetleaf [9, 30]: 5
Velvetleaf plant response rating [9, 23]: 6
Velvetleaf plant response rating [9, 24]: 0
Plant response rating, Velvetleaf [9, 31]: 3
Velvetleaf plant response rating [9, 25]: 3
Corn plant response rating [10, 18]: 0
Corn plant response rating [10, 19]: 0
Corn plant response rating [10, 20]: 0
Plant response rating, Corn [10, 21]: 0
Plant response rating, Corn [10, 22]: 0
Corn plant response rating [10, 23]: 2
Corn plant response rating [10, 24]: 0
Corn plant response rating [10, 25]: 0
S. Flatsedge plant response rating ([11]; Pre-emergence, Rate 1000 g/ha, scale 0 to 10 (0 no effect, 10 complete control)): 0
S. Flatsedge plant response rating [11, 26]: 0
Plant response rating, S. Flatsedge [11, 27]: 0
S. Flatsedge plant response rating [11, 32]: 0
Nutsedge plant response rating [12, 18]: 0
Nutsedge plant response rating [12, 19]: 0
Nutsedge plant response rating [12, 20]: 0
Plant response rating, Nutsedge [12, 21]: 0
Plant response rating, Nutsedge [12, 22]: 0
Nutsedge plant response rating [12, 23]: 6
Nutsedge plant response rating [12, 24]: 0
Nutsedge plant response rating [12, 25]: 0
Crabgrass plant response rating [13, 18]: 3
Crabgrass plant response rating [13, 19]: 8
Crabgrass plant response rating [13, 20]: 7
Plant response rating, Crabgrass [13, 22]: 8
Crabgrass plant response rating [13, 23]: 10
Crabgrass plant response rating [13, 24]: 2
Crabgrass plant response rating [13, 25]: 8
Rape plant response rating [14, 18]: 0
Rape plant response rating [14, 19]: 2
Rape plant response rating [14, 20]: 4
Plant response rating, Rape [14, 21]: 6
Plant response rating, Rape [14, 22]: 7
Rape plant response rating [14, 23]: 9
Rape plant response rating [14, 24]: 0
Rape plant response rating [14, 25]: 4
Wheat plant response rating [15, 18]: 0
Wheat plant response rating [15, 20]: 0
Wheat plant response rating (0 to 10 scale) [15, 29]: 0
Plant response rating, Wheat [15, 30]: 3
Wheat plant response rating [15, 23]: 5
Wheat plant response rating [15, 24]: 0
Plant response rating, Wheat [15, 31]: 3
Wheat plant response rating [15, 25]: 3
Bedstraw plant response rating [16, 33]: 0
Bedstraw plant response rating [16, 19]: 4
Plant response rating, Bedstraw [16, 21]: 0
Plant response rating, Bedstraw [16, 22]: 2
Bedstraw plant response rating [16, 23]: 8
Bedstraw plant response rating [16, 34]: 2
Bedstraw plant response rating [16, 25]: 8
Plant response rating, Rice ([17]; Rate 250 g/ha, Postemergence (flood test), scale 0 to 10, 0 is no effect, 10 is complete control): 0
Rice plant response rating [17, 26]: 0
Plant response rating, Rice [17, 27]: 0
Rice plant response rating ([17]; Rate 500 g/ha, listed under Postemergence (flood test species), scale 0 to 10, 0 no effect, 10 complete control): 0
Rice plant response rating [17, 28]: 0
Rice plant response rating [17, 32]: 0
